Experimental data from US11000033B2, “Ketone or oxime compound, and herbicide” (NISSAN CHEMICAL CORPORATION, priority 2014, dated 2021).

Legend:
Format in all cases: in vivo
[1] = test system: wheat; assay: Test Example 5: effect on crop by foliage application, plastic box (symbol e); settings: 320 g/ha, 3 weeks after application
In short: (§1)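 Box culture: sterile diluvial soil, seeds spot-sown, ~1.5 cm cover, raised under glass at 25–30° C.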

[2] = test system: Scirpus juncoides; assay: Test Example 1: herbicidal activity, application before weed generation in submerged conditions (symbol B); settings: application herbicide amount 320 g/ha
In short: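 Paddy pre-emergence test. Formulated emulsion, water-diluted to a predetermined rate, is applied to floodwater on sowing day; rice transplanted at 2.5 leaves. Effect read at 3 weeks on a 0–5 herbicidal-ratio scale.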

[3] = test system: Veronica persica; assay: Test Example 5: herbicidal effect by foliage application, plastic box (symbol R); settings: 320 g/ha, 3 weeks after application
In short: (§2)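 Seeds were sown in sterilized diluvial soil, covered with about 1.5 cm of soil and grown 14 days in a greenhouse at 25° C. to 30° C. An emulsifiable formulation diluted in water to a set rate was sprayed over foliage, and injury was scored 3 weeks later.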

[4] = test system: Stellaria media; assay: Test Example 4: herbicidal effect by soil treatment (symbol P); settings: application herbicide amount 320 g/ha
In short: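 Seeds were sown in sterilized diluvial soil, covered with about 1.5 cm of soil, and the soil surface was sprayed with a water-diluted emulsion of the compound at a predetermined rate. Plants grew in a greenhouse at 25° C. to 30° C.; effects were scored visually 3 weeks after application.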

[5] = test system: Cyperus difformis; assay: Test Example 3: herbicidal effect by foliage application, Wagner pot (symbol E); settings: application herbicide amount 320 g/ha
In short: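 Post-emergence, paddy-type test: seedlings 14 d old in shallow-flooded (0.1–0.5 cm) alluvial soil, 25–30 °C greenhouse. Emulsion diluted to target rate, sprayed on leaves. Read-out: visual effect on each species at 3 weeks, per set criteria.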

[6] = test system: Amaranthus retroflexus; assay: Test Example 5: herbicidal effect by foliage application, plastic box (symbol N); settings: 320 g/ha, 3 weeks after application
In short: as §2

[7] = test system: rice plant; assay: Test Example 5: effect on crop by foliage application, plastic box (symbol b); settings: 320 g/ha, 3 weeks after application
In short: as §1

[8] = test system: soybean; assay: Test Example 5: effect on crop by foliage application, plastic box (symbol d); settings: 320 g/ha, 3 weeks after application
In short: as §1

[9] = test system: Echinochloa oryzacola Vasing.; assay: Test Example 2: herbicidal activity, application during weed generation in submerged conditions (symbol A); settings: Table 23; application herbicide amount 320 g/ha; grade 0-5 by criteria of Test Example 1
In short: (§3)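 Steps: fill pots with alluvial soil; add water to 4 cm depth; co-sow the three weeds; grow at 25° C. to 30° C. under glass; at 1–2 leaves, dose the floodwater with diluted emulsion; rate damage visually after 3 weeks.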

[10] = test system: Galium spurium; assay: Test Example 5: herbicidal effect by foliage application, plastic box (symbol Q); settings: 320 g/ha, 3 weeks after application
In short: as §2

[11] = test system: Scirpus juncoides; assay: Test Example 2: herbicidal activity, application during weed generation in submerged conditions (symbol B); settings: Table 23; application herbicide amount 320 g/ha; grade 0-5 by criteria of Test Example 1
In short: as §3

[12] = test system: corn; assay: Test Example 4: effect on crop by soil treatment (symbol c); settings: application herbicide amount 320 g/ha
In short: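 Seeds were sown in spots on sterilized diluvial soil in a plastic box and covered with about 1.5 cm of soil. Plants were then grown in a greenhouse at 25° C. to 30° C.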

CON=C(C)C(C)C1CC(O)=C(c2c(C)cc(Br)cc2OC)C1=O (stereo not drawn) [6-113]
e: wheat, effect on crop (criteria of Test Example 1) [1]: 5 (Herbicidal ratio of 90% or more (almost completely withered)) | Herbicidal effect grade, B: Scirpus juncoides [2]: 0 (Herbicidal ratio of 5% or lower (almost no effect)) | R: Veronica persica, herbicidal effect (criteria of Test Example 1) [3]: 0 (Herbicidal ratio of 5% or lower (almost no effect)) | Herbicidal effect grade, P: Stellaria media [4]: 0 (Herbicidal ratio of 5% or lower (almost no effect)) | herbicidal effect on E, grade 0-5 [5]: 5 (Herbicidal ratio of 90% or more (almost completely withered)) | N: Amaranthus retroflexus, herbicidal effect (criteria of Test Example 1) [6]: 0 (Herbicidal ratio of 5% or lower (almost no effect)) | b: directly sowed rice plant, effect on crop (criteria of Test Example 1) [7]: 5 (Herbicidal ratio of 90% or more (almost completely withered)) | d: soybean, effect on crop (criteria of Test Example 1) [8]: 0 (Herbicidal ratio of 5% or lower (almost no effect)) | Herbicidal effect grade, A: Echinochloa oryzacola Vasing. [9]: 5 (Herbicidal ratio of 90% or more (almost completely withered)) | Q: Galium spurium, herbicidal effect (criteria of Test Example 1) [10]: 0 (Herbicidal ratio of 5% or lower (almost no effect)) | Herbicidal effect grade, B: Scirpus juncoides [11]: 0 (Herbicidal ratio of 5% or lower (almost no effect)) | Effect on crop grade, c: corn [12]: 1 (Herbicidal ratio of 5% or higher and lower than 20%)

CON=C(C)C(C(C)=NOC)C1CC(O)=C(c2c(C)cc(C)cc2C)C1=O (stereo not drawn) [1-021]
e: wheat, effect on crop grade [1]: 0 (Herbicidal ratio of 5% or lower (almost no effect)) | Herbicidal effect grade, B: Scirpus juncoides [2]: 0 (Herbicidal ratio of 5% or lower (almost no effect)) | R: Veronica persica, herbicidal effect grade [3]: 0 (Herbicidal ratio of 5% or lower (almost no effect)) | P (Stellaria media) herbicidal effect grade [4]: 0 (Herbicidal ratio of 5% or lower (almost no effect)) | herbicidal effect on E, grade 0-5 [5]: 0 (Herbicidal ratio of 5% or lower (almost no effect)) | N: Amaranthus retroflexus, herbicidal effect grade [6]: 0 (Herbicidal ratio of 5% or lower (almost no effect)) | b: directly sowed rice plant, effect on crop grade [7]: 3 (Herbicidal ratio of 40% or higher and lower than 70%) | d: soybean, effect on crop grade [8]: 0 (Herbicidal ratio of 5% or lower (almost no effect)) | Herbicidal effect grade, A: Echinochloa oryzacola Vasing. [9]: 0 (Herbicidal ratio of 5% or lower (almost no effect)) | Q: Galium spurium, herbicidal effect grade [10]: 0 (Herbicidal ratio of 5% or lower (almost no effect)) | Herbicidal effect grade, B: Scirpus juncoides [11]: 0 (Herbicidal ratio of 5% or lower (almost no effect)) | c (corn) effect on crop grade [12]: 0 (Herbicidal ratio of 5% or lower (almost no effect))

CC(=O)CC1CC(O)=C(c2c(C)cc(C)cc2Br)C1=O (stereo not drawn) [7-011]
e: wheat, effect on crop (criteria of Test Example 1) [1]: 0 (Herbicidal ratio of 5% or lower (almost no effect)) | Herbicidal effect grade, B: Scirpus juncoides [2]: 1 (Herbicidal ratio of 5% or higher and lower than 20%) | R: Veronica persica, herbicidal effect (criteria of Test Example 1) [3]: 1 (Herbicidal ratio of 5% or higher and lower than 20%) | Herbicidal effect grade, P: Stellaria media [4]: 0 (Herbicidal ratio of 5% or lower (almost no effect)) | herbicidal effect on E, grade 0-5 [5]: 5 (Herbicidal ratio of 90% or more (almost completely withered)) | N: Amaranthus retroflexus, herbicidal effect (criteria of Test Example 1) [6]: 5 (Herbicidal ratio of 90% or more (almost completely withered)) | b: directly sowed rice plant, effect on crop (criteria of Test Example 1) [7]: 5 (Herbicidal ratio of 90% or more (almost completely withered)) | d: soybean, effect on crop (criteria of Test Example 1) [8]: 0 (Herbicidal ratio of 5% or lower (almost no effect)) | Herbicidal effect grade, A: Echinochloa oryzacola Vasing. [9]: 3 (Herbicidal ratio of 40% or higher and lower than 70%) | Q: Galium spurium, herbicidal effect (criteria of Test Example 1) [10]: 0 (Herbicidal ratio of 5% or lower (almost no effect)) | Herbicidal effect grade, B: Scirpus juncoides [11]: 2 (Herbicidal ratio of 20% or higher and lower than 40%) | Effect on crop grade, c: corn [12]: 3 (Herbicidal ratio of 40% or higher and lower than 70%)

CC(=O)CC1CC(O)=C(c2c(C)cc(-c3ccc(C(F)(F)F)cc3)cc2C)C1=O (stereo not drawn) [7-005]
e: wheat, effect on crop (criteria of Test Example 1) [1]: 0 (Herbicidal ratio of 5% or lower (almost no effect)) | Herbicidal effect grade, B: Scirpus juncoides [2]: 0 (Herbicidal ratio of 5% or lower (almost no effect)) | R: Veronica persica, herbicidal effect (criteria of Test Example 1) [3]: 0 (Herbicidal ratio of 5% or lower (almost no effect)) | Herbicidal effect grade, P: Stellaria media [4]: 0 (Herbicidal ratio of 5% or lower (almost no effect)) | herbicidal effect on E, grade 0-5 [5]: 0 (Herbicidal ratio of 5% or lower (almost no effect)) | N: Amaranthus retroflexus, herbicidal effect (criteria of Test Example 1) [6]: 0 (Herbicidal ratio of 5% or lower (almost no effect)) | b: directly sowed rice plant, effect on crop (criteria of Test Example 1) [7]: 4 (Herbicidal ratio of 70% or higher and lower than 90%) | d: soybean, effect on crop (criteria of Test Example 1) [8]: 0 (Herbicidal ratio of 5% or lower (almost no effect)) | Herbicidal effect grade, A: Echinochloa oryzacola Vasing. [9]: 1 (Herbicidal ratio of 5% or higher and lower than 20%) | Q: Galium spurium, herbicidal effect (criteria of Test Example 1) [10]: 0 (Herbicidal ratio of 5% or lower (almost no effect)) | Herbicidal effect grade, B: Scirpus juncoides [11]: 0 (Herbicidal ratio of 5% or lower (almost no effect)) | Effect on crop grade, c: corn [12]: 0 (Herbicidal ratio of 5% or lower (almost no effect))

CON=C(C)CC1CC(OC(=O)SC(C)(C)C)=C(c2c(C)cc(-c3ccc(Cl)cc3)cc2C)C1=O (stereo not drawn) [6-082]
e: wheat, effect on crop (criteria of Test Example 1) [1]: 5 (Herbicidal ratio of 90% or more (almost completely withered)) | Herbicidal effect grade, B: Scirpus juncoides [2]: 4 (Herbicidal ratio of 70% or higher and lower than 90%) | R: Veronica persica, herbicidal effect (criteria of Test Example 1) [3]: 4 (Herbicidal ratio of 70% or higher and lower than 90%) | P: Stellaria media, herbicidal effect grade [4]: 0 (Herbicidal ratio of 5% or lower (almost no effect)) | herbicidal effect on E, grade 0-5 [5]: 5 (Herbicidal ratio of 90% or more (almost completely withered)) | N: Amaranthus retroflexus, herbicidal effect (criteria of Test Example 1) [6]: 1 (Herbicidal ratio of 5% or higher and lower than 20%) | b: directly sowed rice plant, effect on crop (criteria of Test Example 1) [7]: 5 (Herbicidal ratio of 90% or more (almost completely withered)) | d: soybean, effect on crop (criteria of Test Example 1) [8]: 0 (Herbicidal ratio of 5% or lower (almost no effect)) | Herbicidal effect grade, A: Echinochloa oryzacola Vasing. [9]: 4 (Herbicidal ratio of 70% or higher and lower than 90%) | Q: Galium spurium, herbicidal effect (criteria of Test Example 1) [10]: 4 (Herbicidal ratio of 70% or higher and lower than 90%) | Herbicidal effect grade, B: Scirpus juncoides [11]: 3 (Herbicidal ratio of 40% or higher and lower than 70%) | c: corn, effect on crop grade [12]: 0 (Herbicidal ratio of 5% or lower (almost no effect))

CON=C(C)CC1CC(O)=C(c2c(OC)cc(C)cc2OC)C1=O (stereo not drawn) [6-103]
e: wheat, effect on crop (criteria of Test Example 1) [1]: 5 (Herbicidal ratio of 90% or more (almost completely withered)) | Herbicidal effect grade, B: Scirpus juncoides [2]: 0 (Herbicidal ratio of 5% or lower (almost no effect)) | R: Veronica persica, herbicidal effect (criteria of Test Example 1) [3]: 2 (Herbicidal ratio of 20% or higher and lower than 40%) | Herbicidal effect grade, P: Stellaria media [4]: 0 (Herbicidal ratio of 5% or lower (almost no effect)) | herbicidal effect on E, grade 0-5 [5]: 5 (Herbicidal ratio of 90% or more (almost completely withered)) | N: Amaranthus retroflexus, herbicidal effect (criteria of Test Example 1) [6]: 0 (Herbicidal ratio of 5% or lower (almost no effect)) | b: directly sowed rice plant, effect on crop (criteria of Test Example 1) [7]: 5 (Herbicidal ratio of 90% or more (almost completely withered)) | d: soybean, effect on crop (criteria of Test Example 1) [8]: 0 (Herbicidal ratio of 5% or lower (almost no effect)) | Herbicidal effect grade, A: Echinochloa oryzacola Vasing. [9]: 5 (Herbicidal ratio of 90% or more (almost completely withered)) | Q: Galium spurium, herbicidal effect (criteria of Test Example 1) [10]: 0 (Herbicidal ratio of 5% or lower (almost no effect)) | Herbicidal effect grade, B: Scirpus juncoides [11]: 0 (Herbicidal ratio of 5% or lower (almost no effect)) | Effect on crop grade, c: corn [12]: 5 (Herbicidal ratio of 90% or more (almost completely withered))
